Measurements from ChEMBL document CHEMBL3994622, “Design and synthesis of new RAF kinase-inhibiting antiproliferative quinoline derivatives. Part 2: Diarylurea derivatives” (Eur J Med Chem, 2017).

Experiments:
[1] = molecular target: RAF proto-oncogene serine/threonine-protein kinase (Homo sapiens, UniProt P04049); test: Inhibition of human c-RAF using MEK1 as substrate in presence of [33P]ATP by Hotspot assay
[2] = tested on: DU-145; test: Growth inhibition of human DU145 cells incubated for 48 hrs by sulforhodamine B assay; type: functional; settings: DU-145, 48 h; for CC50: read-out: LC50 (the source's name)
[3] = tested on: A549; test: Growth inhibition of human A549/ATCC cells incubated for 48 hrs by sulforhodamine B assay; type: functional; settings: A549, 48 h; for CC50: read-out: LC50 (the source's name)
[4] = tested on: OVCAR-5; test: Growth inhibition of human OVCAR5 cells incubated for 48 hrs by sulforhodamine B assay; type: functional; settings: OVCAR-5, 48 h; for CC50: read-out: LC50 (the source's name)
[5] = tested on: SK-OV-3; test: Growth inhibition of human SKOV3 cells incubated for 48 hrs by sulforhodamine B assay; type: functional; settings: SK-OV-3, 48 h; for CC50: read-out: LC50 (the source's name)
[6] = tested on: CAKI-1; test: Growth inhibition of human Caki1 cells incubated for 48 hrs by sulforhodamine B assay; type: functional; settings: CAKI-1, 48 h; for CC50: read-out: LC50 (the source's name)
[7] = tested on: U-251; test: Growth inhibition of human U251 cells incubated for 48 hrs by sulforhodamine B assay; type: functional; settings: U-251, 48 h; for CC50: read-out: LC50 (the source's name)
[8] = tested on: SF-268; test: Growth inhibition of human SF268 cells incubated for 48 hrs by sulforhodamine B assay; type: functional; settings: SF-268, 48 h
[9] = tested on: UACC-257; test: Growth inhibition of human UACC257 cells incubated for 48 hrs by sulforhodamine B assay; type: functional; settings: UACC-257, 48 h; for CC50: read-out: LC50 (the source's name)
[10] = tested on: Malme-3M; test: Growth inhibition of human MALME-3M cells incubated for 48 hrs by sulforhodamine B assay; type: functional; settings: for CC50: read-out: LC50 (the source's name)
[11] = tested on: RPMI-8226; test: Growth inhibition of human RPMI8226 cells incubated for 48 hrs by sulforhodamine B assay; type: functional; settings: RPMI-8226, 48 h
[12] = tested on: OVCAR-3; test: Growth inhibition of human OVCAR3 cells incubated for 48 hrs by sulforhodamine B assay; type: functional; settings: OVCAR-3, 48 h; for CC50: read-out: LC50 (the source's name)
[13] = tested on: MDA-MB-231; test: Growth inhibition of human MDA-MB-231 cells incubated for 48 hrs by sulforhodamine B assay; type: functional; settings: MDA-MB-231, 48 h; for CC50: read-out: LC50 (the source's name)
[14] = tested on: MCF7; test: Growth inhibition of human MCF7 cells incubated for 48 hrs by sulforhodamine B assay; type: functional; settings: MCF7, 48 h; for CC50: read-out: LC50 (the source's name)
[15] = tested on: HCT-116; test: Growth inhibition of human HCT116 cells incubated for 48 hrs by sulforhodamine B assay; type: functional; settings: HCT-116, 48 h
[16] = tested on: NCI/ADR-RES; test: Growth inhibition of human NCI/ADR-RES cells incubated for 48 hrs by sulforhodamine B assay; type: functional; settings: for CC50: read-out: LC50 (the source's name)
[17] = tested on: Hs-578T; test: Growth inhibition of human Hs 578T cells incubated for 48 hrs by sulforhodamine B assay; type: functional; settings: for CC50: read-out: LC50 (the source's name)
[18] = tested on: SK-MEL-28; test: Growth inhibition of human SK-MEL-28 cells incubated for 48 hrs by sulforhodamine B assay; type: functional; settings: SK-MEL-28, 48 h; for CC50: read-out: LC50 (the source's name)
[19] = tested on: SF-295; test: Growth inhibition of human SF295 cells incubated for 48 hrs by sulforhodamine B assay; type: functional; settings: SF-295, 48 h; for CC50: read-out: LC50 (the source's name)
[20] = tested on: SK-MEL-5; test: Growth inhibition of human SK-MEL-5 cells incubated for 48 hrs by sulforhodamine B assay; type: functional; settings: SK-MEL-5, 48 h; for CC50: read-out: LC50 (the source's name)
[21] = tested on: SNB-19; test: Growth inhibition of human SNB19 cells incubated for 48 hrs by sulforhodamine B assay; type: functional; settings: SNB-19, 48 h; for CC50: read-out: LC50 (the source's name)
[22] = tested on: M14; test: Growth inhibition of human M14 cells assessed as cell growth at 0.003 uM incubated for 48 hrs by sulforhodamine B assay relative to control; type: functional; settings: M14, 48 h, read-out: Activity
[23] = tested on: MDA-MB-231; test: Growth inhibition of human MDA-MB-231 cells assessed as cell growth at 0.003 uM incubated for 48 hrs by sulforhodamine B assay relative to control; type: functional; settings: MDA-MB-231, 48 h, read-out: Activity
[24] = tested on: RPMI-8226; test: Growth inhibition of human RPMI8226 cells assessed as cell growth at 30 uM incubated for 48 hrs by sulforhodamine B assay relative to control; type: functional; settings: RPMI-8226, 48 h, read-out: Activity

Sequence of RAF proto-oncogene serine/threonine-protein kinase (P04049 whole entry): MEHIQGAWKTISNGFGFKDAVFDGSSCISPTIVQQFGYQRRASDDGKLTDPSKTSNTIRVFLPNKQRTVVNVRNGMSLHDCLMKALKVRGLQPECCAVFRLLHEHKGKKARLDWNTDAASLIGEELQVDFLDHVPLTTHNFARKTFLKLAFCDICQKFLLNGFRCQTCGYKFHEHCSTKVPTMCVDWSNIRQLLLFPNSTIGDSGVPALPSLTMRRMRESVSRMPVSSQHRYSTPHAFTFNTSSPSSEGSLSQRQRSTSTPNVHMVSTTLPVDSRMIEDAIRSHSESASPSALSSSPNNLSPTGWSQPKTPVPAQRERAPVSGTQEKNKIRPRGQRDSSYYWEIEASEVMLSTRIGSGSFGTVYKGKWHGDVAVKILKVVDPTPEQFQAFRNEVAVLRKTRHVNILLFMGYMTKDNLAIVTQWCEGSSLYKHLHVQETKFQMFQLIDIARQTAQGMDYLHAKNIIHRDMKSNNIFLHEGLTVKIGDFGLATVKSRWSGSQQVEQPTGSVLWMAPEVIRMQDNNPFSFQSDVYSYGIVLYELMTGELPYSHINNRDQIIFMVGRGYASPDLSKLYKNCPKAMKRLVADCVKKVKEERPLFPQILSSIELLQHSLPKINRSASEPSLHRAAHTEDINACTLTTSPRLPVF

## COc1cc2cc(Oc3ccc(NC(=O)Nc4cccc(C(F)(F)F)c4)cc3)c(C)nc2cc1OC
[1]
  IC50: 0.15 µM
[2]
  GI50: 2.78 µM
  TGI: 15.8 µM
  CC50: > 50 µM
[3]
  GI50: 1.47 µM
  TGI: 6.49 µM
  CC50: 26.6 µM
[4]
  GI50: 3.02 µM
  TGI: 13 µM
  CC50: > 50 µM
[5]
  GI50: 2.06 µM
  TGI: 10.6 µM
  CC50: > 50 µM
[6]
  GI50: 1.32 µM
  TGI: 4.29 µM
  CC50: 48.6 µM
[7]
  GI50: 1.56 µM
  TGI: 5.61 µM
  CC50: 17 µM
[8]
  GI50: 2.57 µM
  LC50 (50% lethal concentration): > 50 µM
  TGI: 15.5 µM
[9]
  GI50: 1.09 µM
  TGI: 3.66 µM
  CC50: 19.9 µM
[10]
  GI50: 1.71 µM
  TGI: 4.9 µM
  CC50: 33.8 µM
[11]
  GI50: 1.05 µM
  LC50 (lethal concentration, 50% cell kill): > 50 µM
  TGI: 2.96 µM
[12]
  GI50: 2.04 µM
  TGI: 8.07 µM
  CC50: 39.9 µM
[13]
  GI50: 1.13 µM
  TGI: 4.15 µM
  CC50: 18.6 µM
[14]
  GI50: 1.34 µM
  TGI: 5.43 µM
  CC50: 18.9 µM
[15]
  GI50: 1.46 µM
  LC50 (50% lethal concentration): 20.4 µM
  TGI: 5.84 µM
[16]
  GI50: 1.71 µM
  TGI: 7.19 µM
  CC50: 40 µM
[17]
  GI50: 1.44 µM
  TGI: 4.22 µM
  CC50: > 50 µM
[18]
  GI50: 1.97 µM
  TGI: 8.37 µM
  CC50: 28.2 µM
[19]
  GI50: 1.13 µM
  TGI: 3.59 µM
  CC50: 27.2 µM
[20]
  GI50: 1.08 µM
  TGI: 2.66 µM
  CC50: 8.47 µM
[21]
  GI50: 2.19 µM
  TGI: 15 µM
  CC50: > 50 µM

## COc1cc2cc(Oc3ccc(NC(=O)Nc4ccc(Cl)c(C(F)(F)F)c4)cc3)c(C)nc2cc1OC
[1]
  IC50: 0.1 µM
[2]
  GI50: 1.24 µM
  TGI: 5.11 µM
  CC50: 19.1 µM
[3]
  GI50: 1 µM
  TGI: 4.16 µM
  CC50: 15.1 µM
[4]
  GI50: 1.93 µM
  TGI: 6.22 µM
  CC50: 17.4 µM
[5]
  GI50: 1.35 µM
  TGI: 5.79 µM
  CC50: 31.5 µM
[6]
  GI50: 0.782 µM
  TGI: 2.54 µM
  CC50: 25.2 µM
[7]
  GI50: 1.03 µM
  TGI: 3.78 µM
  CC50: 12.6 µM
[8]
  GI50: 1.55 µM
  LC50 (50% lethal concentration): 22.6 µM
  TGI: 6.34 µM
[9]
  GI50: 0.71 µM
  TGI: 2.36 µM
  CC50: 19.6 µM
[10]
  GI50: 1.33 µM
  TGI: 5.71 µM
  CC50: > 32.5 µM
[11]
  GI50: 0.636 to 0.64 µM
  LC50 (lethal concentration, 50% cell kill): > 32.5 µM
  TGI: 1.65 µM
[22]
  growth at 0.003 µM: 97%
[12]
  GI50: 1.16 µM
  TGI: 4.45 µM
  CC50: 14 µM
[13]
  GI50: 0.681 µM
  TGI: 1.84 µM
  CC50: 9.6 µM
[14]
  GI50: 1.08 µM
  TGI: 3.88 µM
  CC50: 15 µM
[23]
  growth at 0.003 µM: 101%
[15]
  GI50: 0.994 µM
  LC50 (50% lethal concentration): 14 µM
  TGI: 3.84 µM
[16]
  GI50: 1.06 µM
  TGI: 4.91 µM
  CC50: > 32.5 µM
[17]
  GI50: 0.72 µM
  TGI: 2.31 µM
  CC50: 27.4 µM
[18]
  GI50: 1.41 µM
  TGI: 5.45 µM
  CC50: 14.4 µM
[24]
  growth at 30 µM: -47%
[19]
  GI50: 0.899 to 0.9 µM
  TGI: 2.91 µM
  CC50: 22.2 µM
[20]
  GI50: 0.793 µM
  TGI: 2.17 µM
  CC50: 8.01 µM
[21]
  GI50: 1.41 µM
  TGI: 5.31 µM
  CC50: 15 µM
